{"source": "paper PMC10411625", "about": "“Rationally designed stapled peptides allosterically inhibit PTBP1–RNA-binding” (Chemical Science, 2023)", "key": {"[1]": {"target": "T1, PTBP1 RRM1Δα3 (RRM1 lacking the α3-helix) (Homo sapiens, UniProt P26599)", "T1 construct": "(G41-S140); His tag (N); made in house; host or cells: E. coli BL21 DE3 RIL", "assay": "Fluorescence polarization binding of FAM-RNA to PTBP1 RRM1Δα3", "details": "FP, 5 nM FAM-labelled RNA, 20 mM sodium phosphate pH 8.0, 50 mM NaCl, 0.001% Tween20, 20 °C, 30 min", "description": "(§1) To confirm the role of the α3-helix described by the Allain group we performed fluorescence polarization (FP) experiments with various PTBP1 protein constructs and two RNA sequences.[25] The first set of proteins contained either the single RRM1, RRM1 lacking the α3-helix (RRM1Δα3) or RRM1–L151G (Fig. 1A and C). The L151G mutation was previously described by the Allain group to break the fold of the helix and reduce RNA-binding 2.3 fold as measured by ITC.[25] As tracer in the FP experiments, we used a FAM-labelled short RNA (RNA-1) with a single PTBP1 binding site (UCUU) which can accommodate a single RRM (Fig. 1B). […] The L151G mutation reduced binding 3.6-fold which is somewhat higher than what was observed previously but in the same range. […] To see whether the effect of the helix was also present in larger constructs we measured the affinity of RRM1 and 2 combined (RRM12) as well as the RRM12–L151G mutant. […]\n(§2) size exclusion chromatography (Superdex 75 16/60 or 26/60) with SEC buffer (50 mM Tris, 200 mM NaCl). Protein homogeneity was assessed by the size exclusion chromatogram and purity was checked by SDS-PAGE analysis to be >= 90%.\n(§3) The gene encoding for SRSF1-RRM12 (1-195) was subcloned into pOPIN-His expression vector and expressed in E. coli BL21 (DE3). […]\n(§4) Fluorescence polarization assay with PTBP1 […]"}, "[2]": {"target": "T2, PTBP1 RRM1 (MBP-RRM1, G41-A163) (Homo sapiens, UniProt P26599)", "T2 construct": "(G41-A163); His tag; made in house; host or cells: E. coli BL21 DE3 RIL", "T2 sequence (P26599 41-163)": "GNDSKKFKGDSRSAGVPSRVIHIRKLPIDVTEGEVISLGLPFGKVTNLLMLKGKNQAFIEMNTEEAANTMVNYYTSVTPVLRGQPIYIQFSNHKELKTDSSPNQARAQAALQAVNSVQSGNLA", "assay": "Fluorescence polarization binding of FAM-RNA to PTBP1 RRM1", "details": "FP, 5 nM FAM-labelled RNA, 20 mM sodium phosphate pH 8.0, 50 mM NaCl, 0.001% Tween20, 20 °C, 30 min", "description": "as §1, §2, §3, §4"}, "[3]": {"target": "T3, PTBP1 RRM2 (MBP-RRM2, M177-D284) (Homo sapiens, UniProt P26599)", "T3 construct": "(M177- D284); His tag; made in house; host or cells: E. coli BL21 DE3 RIL", "T3 sequence (P26599 177-284)": "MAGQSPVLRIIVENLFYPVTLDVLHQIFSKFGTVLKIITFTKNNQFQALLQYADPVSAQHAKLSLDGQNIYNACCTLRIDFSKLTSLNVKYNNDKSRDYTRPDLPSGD", "assay": "Fluorescence polarization binding of FAM-RNA to PTBP1 RRM2", "details": "FP, 5 nM FAM-labelled RNA, 20 mM sodium phosphate pH 8.0, 50 mM NaCl, 0.001% Tween20, 20 °C, 30 min", "description": "as §1, §2, §3, §4"}, "PTBP1 RRM12-L151G": {"target": "T4, PTBP1 RRM12-L151G (Homo sapiens, UniProt P26599, L151G)", "T4 construct": "(P57-V265); MBP (from pMAL vector); His tag; made in house; host or cells: E. coli BL21 DE3 RIL", "T4 sequence (P26599 57-265 L151G)": "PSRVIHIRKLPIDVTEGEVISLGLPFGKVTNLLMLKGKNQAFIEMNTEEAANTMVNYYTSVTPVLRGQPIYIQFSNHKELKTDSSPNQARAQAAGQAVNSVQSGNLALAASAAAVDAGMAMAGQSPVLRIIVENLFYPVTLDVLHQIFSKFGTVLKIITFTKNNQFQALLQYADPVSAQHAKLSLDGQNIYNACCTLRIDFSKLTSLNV", "assay": "Fluorescence polarization binding of FAM-RNA to PTBP1 RRM12-L151G", "description": "as §1, §2, §3, §4"}, "PTBP1 RRM12 (P57-V265)": {"target": "T5, PTBP1 RRM12 (P57-V265) (Homo sapiens, UniProt P26599)", "T5 construct": "(P57-V265); MBP (from pMAL vector); His tag; made in house; host or cells: E. coli BL21 DE3 RIL", "T5 sequence (P26599 57-265)": "T4 sequence (P26599 57-265 L151G) with G95L", "assay": "Fluorescence polarization binding of FAM-RNA to PTBP1 RRM12", "details": "FP, 5 nM FAM-labelled RNA, 20 mM sodium phosphate pH 8.0, 50 mM NaCl, 0.001% Tween20, 20 °C, 30 min", "description": "as §1, §2, §3, §4"}, "PTBP1 RRM1-L151G": {"target": "T6, PTBP1 RRM1-L151G (Homo sapiens, UniProt P26599, L151G)", "T6 construct": "(G41-A163,; His tag; made in house; host or cells: E. coli BL21 DE3 RIL", "T6 sequence (P26599 41-163 L151G)": "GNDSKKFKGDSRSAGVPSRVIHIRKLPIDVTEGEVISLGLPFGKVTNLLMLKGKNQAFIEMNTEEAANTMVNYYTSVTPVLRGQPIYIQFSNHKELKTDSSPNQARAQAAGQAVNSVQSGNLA", "assay": "Fluorescence polarization binding of FAM-RNA to PTBP1 RRM1-L151G", "description": "as §1, §2, §3, §4"}, "[4]": {"details": "FP, 5 nM FAM-labelled RNA, 20 mM sodium phosphate pH 8.0, 50 mM NaCl, 0.001% Tween20, 20 °C, 30 min"}}, "note": "Substitutions are numbered along the chain they refer to. {FAM} = fluorescein (FAM) label"}
{"substance": "RNA-2: FAM-AUUUUUCCAUCUUUGUAUC, sequence of microRNA miR-29b-2, two poly(U) motifs (RNA, 5' {FAM}, backbone not given here)", "values": [{"measurement": "Kd", "setting": "[1]", "result": "6450 ± 1360", "unit": "nM"}, {"measurement": "Kd", "setting": "[2]", "result": "90 ± 23", "unit": "nM"}, {"measurement": "Kd", "setting": "[3]", "result": "721 ± 308", "unit": "nM"}, {"measurement": "Kd", "setting": "PTBP1 RRM12-L151G; [4]", "result": "42 ± 1", "unit": "nM"}, {"measurement": "reduction of RNA affinity by L151G mutation, RRM12-L151G versus RRM12", "setting": "PTBP1 RRM12-L151G; from FP KD values", "result": 2.5, "unit": "fold"}, {"measurement": "Kd", "setting": "PTBP1 RRM12 (P57-V265)", "result": "17 ± 2", "unit": "nM"}, {"measurement": "Kd", "setting": "PTBP1 RRM1-L151G; [4]", "result": "218 ± 11", "unit": "nM"}, {"measurement": "reduction of RNA affinity by L151G mutation, RRM1-L151G versus RRM1", "setting": "PTBP1 RRM1-L151G; from FP KD values", "result": 2.4, "unit": "fold"}]}
